# Data from patent US20030215788A1, “Cysteine thiol-protected peptides for use in immunoassays” (priority 1989, published 2003).
# Entries after “also recorded” stand apart in the source; their conditions may differ. Read-outs that look alike come from different tables or passages of the source.
# Legend:
# Antibodies to HIV-1 [1] = type: binding, human
# Protocol: Alternative methods of testing immunologic cross-reactivity were also used. In one such method L5 Peptides 39 and 39GC were tested by ELISA as previously described in U.S. Pat. No. 4,629,783. Briefly, stock solutions of peptides 39 and 39-GC were prepared in 6M Gu-HCl. Working dilutions of 20 µg/ml and 6 μg/ml respectively were prepared by dilution of stock solution 0 with 0.05M carbonate/bicarbonate buffer, pH 9.5. Wells of microtiter plates were filled with 100 μl of the working dilution of the peptides and allowed to stand overnight at room temperature. Coating solution was removed and 300 μl of blocking solution supra containing 0.5M ethanolamine was added for 1 hr. at room temperature. Blocking solution was removed and the plates were used immediately or allowed to dry and stored for later use.
# Plasma samples were diluted (See Table 1) in sample dilution buffer (above) and 100 μl was added to individual wells. Samples were incubated for 30 min. at 37° C., then removed and the wells were washed six times with 0.15M NaCl, 0.05% Tween 20. One hundred microliters of goat antihuman Ig-horseradish peroxidase conjugate diluted in citrate buffer, pH 7.0, 1% normal goat serum was added to each well for 30 min at 37° C. prior to washing six times as above. The ELISA assay was developed by adding 100 μl/well of substrate solution (80 μg/ml tetramethyl benzidine, 0.0015% hydrogen peroxide in citrate/phosphate buffer, pH 6.0) for 30 min. at room temperature. Reactions were stopped with the addition of 100 μl of H2SO4 per well, and the ratio of the optical density at 450 nm to 630 nm was determined by an automated ELISA reader. The cutoff value for a positive result was set at 0.225 Absorbance Units above the average absorbance obtained for three known negative samples.
# Antibodies to HIV-1 [2] = type: binding, human; details: adsorbed on latex beads, absorbance at 405 nm
# Protocol: Peptide 39 and its analogues were tested for immunological reactivity by a test tube assay wherein the peptides were immobilized by adsorption or covalent bonding onto latex beads.
# Diluted peptide from a 4 mg/ml 6M GuHCl stock solution was added to the washed beads (25-200 μg peptide) to a final volume of 550 μl. The mixture was vigorously stirred for 30 sec. followed by less vigorous mixing overnight. Following overnight incubation 500 μl of distilled water was added and the beads were collected by centrifugation. The beads were washed with 1 ml of distilled water twice before being suspended in 100 μl of distilled water followed by the addition of 100 μl 0.5N NaOH with immediate mixing to deprotect the cysteine residues of the adsorbed peptide. Deprotection was stopped with the addition of 1 ml 0.25N HEPES, pH 7.4.
# Air oxidation of the peptide/bead solution was carried out overnight at room temperature. Potassium ferricyanide was added to the peptide/bead solution to complete the oxidation. The tube was centrifuged and the beads were washed three times with 1 ml of distilled water. […]
# Immunological reactivity of the peptides was detected indirectly by the alkaline phosphatase activity. […]
# The beads were pelleted by centrifugation and the supernatant was measured for absorbance in a spectrophotometer at 405 nm.
substance,measurement,setting,value
Cys-Gly-Gly-Arg-Ile-Leu-Ala-Val-Glu-Arg-Tyr-Leu-Lys-Asp-Gln-Gln-Leu-Leu-Gly-Ile-Trp-Gly-Cys*-Ser-Gly-Lys-Leu-Ile-Cys*-NH2 [Peptide 39GC],Diagnosis by ELISA,Antibodies to HIV-1 [1]; PlasmaG (1:40),Pos/Pos
same,ELISA optical density (450 nm/630 nm),Antibodies to HIV-1 [1]; PlasmaG (1:40),0.895
same,Diagnosis by ELISA,Antibodies to HIV-1 [1]; PlasmaG (1:80),Pos
same,ELISA optical density (450 nm/630 nm),Antibodies to HIV-1 [1]; PlasmaG (1:80),0.820
same,Diagnosis by ELISA,Antibodies to HIV-1 [1]; PlasmaG (1:160),Pos
same,ELISA optical density (450 nm/630 nm),Antibodies to HIV-1 [1]; PlasmaG (1:160),0.575
same,Diagnosis by ELISA,Antibodies to HIV-1 [1]; PlasmaG (1:320),Neg/Neg
same,ELISA optical density (450 nm/630 nm),Antibodies to HIV-1 [1]; PlasmaG (1:320),0.349
same,Diagnosis by ELISA,Antibodies to HIV-1 [1]; PlasmaG (1:640),Neg/Neg
same,ELISA optical density (450 nm/630 nm),Antibodies to HIV-1 [1]; PlasmaG (1:640),0.179
same,Diagnosis by ELISA,Antibodies to HIV-1 [1]; PlasmaG (1:1280),Neg/Neg
same,ELISA optical density (450 nm/630 nm),Antibodies to HIV-1 [1]; PlasmaG (1:1280),0.107
same,Diagnosis by ELISA,Antibodies to HIV-1 [1]; PlasmaO (1:40),Pos/Pos
same,ELISA optical density (450 nm/630 nm),Antibodies to HIV-1 [1]; PlasmaO (1:40),1.439
same,Diagnosis by ELISA,Antibodies to HIV-1 [1]; PlasmaO (1:80),Pos/Pos
same,ELISA optical density (450 nm/630 nm),Antibodies to HIV-1 [1]; PlasmaO (1:80),1.010
same,Diagnosis by ELISA,Antibodies to HIV-1 [1]; PlasmaO (1:160),Pos/Pos
same,ELISA optical density (450 nm/630 nm),Antibodies to HIV-1 [1]; PlasmaO (1:160),0.742
same,Diagnosis by ELISA,Antibodies to HIV-1 [1]; PlasmaO (1:320),Pos
same,ELISA optical density (450 nm/630 nm),Antibodies to HIV-1 [1]; PlasmaO (1:320),0.397
same,Diagnosis by ELISA,Antibodies to HIV-1 [1]; PlasmaO (1:640),Neg/Neg
same,ELISA optical density (450 nm/630 nm),Antibodies to HIV-1 [1]; PlasmaO (1:640),0.279
same,Diagnosis by ELISA,Antibodies to HIV-1 [1]; PlasmaO (1:1280),Neg/Neg
same,ELISA optical density (450 nm/630 nm),Antibodies to HIV-1 [1]; PlasmaO (1:1280),0.165
same,"dilution giving a positive result, compared with Peptide 39","Antibodies to HIV-1 [1]; plasma dilution panel, Table 1",positive result at a higher dilution than Peptide 39
same,ELISA optical density,Antibodies to HIV-1 [1]; seroconversion panel sample BBI-1,0.347
same,ELISA optical density,Antibodies to HIV-1 [1]; seroconversion panel sample BBI-2,0.317
same,ELISA optical density,Antibodies to HIV-1 [1]; seroconversion panel sample BBI-3,0.842
same,ELISA optical density,Antibodies to HIV-1 [1]; seroconversion panel sample BBI-4,1.105
same,ELISA optical density,Antibodies to HIV-1 [1]; seroconversion panel sample BBI-5,1.757
same,ELISA optical density,Antibodies to HIV-1 [1]; seroconversion panel sample BBI-6,2.160
same,ELISA optical density,Antibodies to HIV-1 [1]; seroconversion panel sample BBI-7,1.986
same,ELISA optical density,Antibodies to HIV-1 [1]; seroconversion panel sample BBI-8,2.317
same,ELISA optical density,Antibodies to HIV-1 [1]; seroconversion panel sample BBI-9,2.328
same,ELISA optical density,Antibodies to HIV-1 [1]; seroconversion panel sample BBI-20,0.136
same,ELISA optical density,Antibodies to HIV-1 [1]; seroconversion panel sample BBI-21,0.158
same,ELISA optical density,Antibodies to HIV-1 [1]; seroconversion panel sample BBI-22,0.450
same,ELISA optical density,Antibodies to HIV-1 [1]; seroconversion panel sample BBI-23,0.890
same,ELISA optical density,Antibodies to HIV-1 [1]; seroconversion panel sample BBI-24,1.064
same,ELISA optical density,Antibodies to HIV-1 [1]; seroconversion panel sample BBI-25,0.845
same,ELISA optical density,Antibodies to HIV-1 [1]; seroconversion panel sample BBI-26,0.852
same,ELISA optical density,Antibodies to HIV-1 [1]; seroconversion panel sample BBI-27,1.104
same,ELISA optical density,Antibodies to HIV-1 [1]; seroconversion panel sample BBI-28,1.177
same,ELISA optical density,Antibodies to HIV-1 [1]; seroconversion panel sample BBI-29,2.085
same,ELISA optical density,Antibodies to HIV-1 [1]; seroconversion panel sample BBI-30,2.214
same,ELISA optical density,Antibodies to HIV-1 [1]; seroconversion panel sample BBI-31,2.207
same,ELISA optical density,Antibodies to HIV-1 [1]; seroconversion panel sample BBI-32,2.263
same,ELISA optical density,Antibodies to HIV-1 [1]; seroconversion panel sample BBI-33,2.277
same,ELISA optical density,Antibodies to HIV-1 [1]; seroconversion panel sample BBI-34,1.622
same,ELISA optical density,Antibodies to HIV-1 [1]; seroconversion panel sample BBI-35,2.198
same,ELISA optical density,Antibodies to HIV-1 [1]; seroconversion panel sample BBI-36,2.265
same,ELISA optical density,Antibodies to HIV-1 [1]; seroconversion panel sample BBI-37,2.105
same,time of first positive result on seroconversion panels,"Antibodies to HIV-1 [1]; two seroconversion panels, Table 4",positive result earlier than whole virus ELISA; also recorded: positive result earlier than peptide 39 on one of the seroconversion panels
same,immunological reactivity compared with Peptide 39,Antibodies to HIV-1 [2],substantial improvement over Peptide 39
